Some test systems named below: SF-268; M14; SNB-75; MCF7; UACC-257; RXF 393; U-251; BT-549; NCI-H23; SW-620; Hs-578T; SF-539; CAKI-1; ACHN; A549; SN12C; MDA-MB-231; NCI/ADR-RES; SK-MEL-28; HL-60.
Common to all, as to assay: NCI-60 cell line screen, 48 h

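Exposure lasted 48 hours, with cells grown in 96-well plates and compounds tested at five concentrations. GI50 = concentration required for 50% inhibition of growth.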 Active and inactive are the calls of the source. No stated cut-off is given here; in the data, active = GI50 up to about 1.1 µM and inactive = higher. Some results are limits rather than exact numbers.

Turning to `Cc1ccc(OCC2OC(n3cnc4nc(Cl)nc(Cl)c43)CC2Oc2ccc(C)cc2)cc1` (stereo not given), the GI50 in the test with SF-268 is 7.01 µM (inactive); in the test with M14 it was 6.35 µM (inactive); with SNB-75, 14.7 µM (inactive); in the test with MCF7 it was 5.61 µM (inactive); in the test with UACC-257, 12.9 µM (inactive); in the test on RXF 393 it was 3.85 µM (inactive). The GI50 with U-251 was 11.1 µM (inactive); with BT-549, 9.51 µM (inactive); in the test on NCI-H23, 7.71 µM (inactive); in the test with SW-620, 3.76 µM (inactive); in the test with Hs-578T, 11.9 µM (inactive); in the test on SF-539, 5.94 µM (inactive). Moreover, the GI50 was 4.75 µM (inactive) with CAKI-1; 3.05 µM (inactive) in the test with ACHN; 27.3 µM (inactive) in the test on A549; 7.31 µM (inactive) in the test on SN12C; 2.51 µM (inactive) with MDA-MB-231; 15.3 µM (inactive) in the test with NCI/ADR-RES. Further, the GI50 in the test with SK-MEL-28 was 3.65 µM (inactive); in the test on HL-60, 0.402 µM (active).

Turning to `CC(C)(Br)C(=O)C(Br)Br`, the GI50 was 14 µM (inactive) in the test on SF-268; 2.44 µM (inactive) with M14; 13.7 µM (inactive) with SNB-75; 6.38 µM (inactive) with MCF7; 9.84 µM (inactive) with UACC-257; 3.16 µM (inactive) in the test with RXF 393. Besides, the GI50 in the test on U-251 was > 28 µM (inactive); in the test on BT-549, 4.9 µM (inactive); in the test with NCI-H23, 4.61 µM (inactive); in the test on SW-620 it was 1.89 µM (inactive); in the test on Hs-578T, 6.89 µM (inactive); in the test with SF-539, > 33.2 µM (inactive). Also, the GI50 in the test on CAKI-1 is 1.95 µM (inactive); in the test on ACHN, 10.5 µM (inactive); with A549, 16.6 µM (inactive); in the test on SN12C it was > 24.4 µM (inactive); with MDA-MB-231, 5.56 µM (inactive); with NCI/ADR-RES it was 4.82 µM (inactive). For the same compound, the GI50 in the test with SK-MEL-28 is 9.04 µM (inactive); in the test on HL-60 it was 1.9 µM (inactive).

Take `Nc1nc2c(ncn2C2CCC(CO)O2)c(=O)n1C(=O)c1ccccc1` (stereo not given): the GI50 was > 100 µM (inactive) in the test on SF-268; > 100 µM (inactive) in the test on M14; > 74.5 µM (inactive) in the test with SNB-75; > 100 µM (inactive) in the test on MCF7; > 100 µM (inactive) with UACC-257; > 100 µM (inactive) in the test on RXF 393. In addition, the GI50 in the test on U-251, in the test on BT-549, with NCI-H23, with SW-620, in the test on Hs-578T and in the test on SF-539 was > 100 µM (inactive) throughout. Also, the GI50 in the test with CAKI-1, in the test on ACHN, with A549, in the test with SN12C, in the test on MDA-MB-231 and with NCI/ADR-RES was > 100 µM (inactive) in each case. For the same compound, the GI50 in the test on SK-MEL-28 and with HL-60 was > 100 µM (inactive) each time.

As for `C=CCSc1nc2c(N)ncnc2n1C1OC(CO)C(O)C1O` (stereo not given), the GI50 in the test with SF-268, in the test with M14, in the test on SNB-75, with MCF7, with UACC-257 and in the test on RXF 393 was > 100 µM (inactive) in each case. The GI50 in the test with U-251, in the test on BT-549, with NCI-H23, in the test on SW-620, with Hs-578T and in the test on SF-539 was > 100 µM (inactive) throughout. Further, the GI50 with CAKI-1, with ACHN, in the test on A549, with SN12C, in the test on MDA-MB-231 and in the test with NCI/ADR-RES was > 100 µM (inactive) throughout. Also, the GI50 in the test with SK-MEL-28 and in the test with HL-60 was > 100 µM (inactive) throughout.

With `Cc1ccc(-c2n[nH]c(=O)n2NC(=O)c2ccccc2C(=O)O)cc1`, the GI50 in the test with SF-268, with M14, in the test on SNB-75, in the test on MCF7, with UACC-257 and in the test with RXF 393 was > 100 µM (inactive) in each case. Further, the GI50 in the test with U-251, in the test on BT-549, in the test on NCI-H23, in the test with SW-620, in the test on Hs-578T and in the test with SF-539 was > 100 µM (inactive) each time. The GI50 in the test with CAKI-1, with ACHN, with A549, with SN12C, in the test on MDA-MB-231 and in the test with NCI/ADR-RES was > 100 µM (inactive) in each case. Also, the GI50 in the test on SK-MEL-28 and in the test with HL-60 was > 100 µM (inactive) in each case.

Take `CC(=O)Nc1ccc(S(=O)(=O)c2nnc(NC(C)=O)s2)cc1`: the GI50 in the test with SF-268, with M14, in the test with SNB-75, in the test with MCF7, with UACC-257 and in the test with RXF 393 was > 100 µM (inactive) each time. In addition, the GI50 with U-251, in the test with BT-549, with NCI-H23, in the test with SW-620, with Hs-578T and in the test on SF-539 was > 100 µM (inactive) each time. Also, the GI50 in the test with CAKI-1, in the test on ACHN, with A549, in the test on SN12C, in the test with MDA-MB-231 and in the test on NCI/ADR-RES was > 100 µM (inactive) each time. Moreover, the GI50 with SK-MEL-28 and with HL-60 was > 100 µM (inactive) throughout.

As for `CC1=C(C(=O)c2ccccc2)C23C(=O)N(c4ccccc4)C(=O)C2=C(O)C=CC3(O)N1` (stereo not given), the GI50 with SF-268 is 38.6 µM (inactive); in the test with M14, 40.2 µM (inactive); with SNB-75, 24.2 µM (inactive); in the test on MCF7 it was 38.3 µM (inactive); in the test on UACC-257, 44.5 µM (inactive); in the test with RXF 393, 20.2 µM (inactive). Moreover, the GI50 with U-251 was 28.1 µM (inactive); in the test with BT-549, 20.4 µM (inactive); in the test on NCI-H23 it was 44.2 µM (inactive); in the test on SW-620, 25.9 µM (inactive); with Hs-578T, > 100 µM (inactive); with SF-539 it was 47.9 µM (inactive). The GI50 is 28.9 µM (inactive) with CAKI-1; 15.9 µM (inactive) with ACHN; 50.2 µM (inactive) in the test with A549; 30.3 µM (inactive) in the test on SN12C; 28 µM (inactive) in the test on MDA-MB-231; 51.4 µM (inactive) with NCI/ADR-RES. In addition, the values for the GI50 in the test with SK-MEL-28 and in the test with HL-60 were 17.3 µM (inactive) and 16.6 µM (inactive), respectively.

As to `CCC1(O)CC(OC2CC(N(C)C)C(OC3CC(O)C(OC4CCC(=O)C(C)O4)C(C)O3)C(C)O2)c2c(cc3c(c2O)C(=O)c2c(O)ccc(O)c2C3=O)C1C(=O)OC` (stereo not given), the GI50 with SF-268, in the test on M14, in the test on SNB-75, in the test with MCF7, with UACC-257 and with RXF 393 was < 0.01 µM (active) throughout. Further, the GI50 with U-251 was < 0.01 µM (active); in the test on BT-549, < 0.0152 µM (active); in the test with NCI-H23, < 0.01 µM (active); in the test on SW-620, < 0.01 µM (active); with Hs-578T, < 0.0407 µM (active); in the test on SF-539, < 0.01 µM (active). Also, the GI50 was < 0.01 µM (active) with CAKI-1; < 0.01 µM (active) with ACHN; < 0.01 µM (active) in the test on A549; < 0.01 µM (active) in the test on SN12C; < 0.0132 µM (active) in the test on MDA-MB-231; < 0.01 µM (active) in the test on NCI/ADR-RES. Also, the GI50 in the test on SK-MEL-28 and with HL-60 was < 0.01 µM (active) in each case.

Regarding `CNC(=O)c1cc(NC(=O)N(CCC#N)CCN(C(=O)N[C@@H](Cc2ccccc2)C(=O)N[C@@H](CC(C)C)C(=O)NC)c2ccccc2)ccc1OC`, the GI50 was 34.2 µM (inactive) in the test with SF-268; > 93.3 µM (inactive) in the test on M14; 49.3 µM (inactive) in the test with SNB-75; > 76 µM (inactive) in the test with MCF7; 19.5 µM (inactive) in the test on UACC-257; > 54.6 µM (inactive) with RXF 393. For the same compound, the GI50 was > 100 µM (inactive) in the test with U-251; > 69.5 µM (inactive) in the test on BT-549; > 100 µM (inactive) with NCI-H23; > 100 µM (inactive) with SW-620; 58.7 µM (inactive) with Hs-578T; 36 µM (inactive) in the test on SF-539. For the same compound, the GI50 in the test with CAKI-1 is > 81.1 µM (inactive); in the test with ACHN it was > 74.8 µM (inactive); with A549, > 100 µM (inactive); with SN12C, > 51.6 µM (inactive); in the test on MDA-MB-231 it was > 38.3 µM (inactive); in the test on NCI/ADR-RES, > 100 µM (inactive). Besides, the GI50 was 29.3 µM (inactive) in the test with SK-MEL-28 and 23.2 µM (inactive) in the test with HL-60.

Consider `CC(C)C[C@H](NC(=O)[C@H](Cc1ccc(F)cc1)NC(=O)c1ccccn1)B(O)O`, for which the GI50 in the test on SF-268, in the test with M14, in the test on SNB-75, with MCF7, in the test with UACC-257 and with RXF 393 was < 0.01 µM (active) in each case. Also, the GI50 in the test on U-251, in the test on BT-549, in the test on NCI-H23, in the test with SW-620, with Hs-578T and in the test on SF-539 was < 0.01 µM (active) throughout. In addition, the GI50 with CAKI-1, with ACHN, in the test on A549, in the test with SN12C, in the test on MDA-MB-231 and in the test with NCI/ADR-RES was < 0.01 µM (active) in each case. Besides, the GI50 with SK-MEL-28 and in the test on HL-60 was < 0.01 µM (active) in each case.

The values are drawn from ChEMBL document CHEMBL1201862, “PubChem BioAssay data set” (2004).
